Experimental data as given in patent US6355785B1, “Guanosine-rich oligonucleotide integrase inhibitors” (Aronex Pharmaceuticals, Inc., priority 1993, dated 2002).
Several values for one entry are separate records, joined by “and”; a condition that tells them apart may be missing. Identical values can stand only once. Like-named read-outs stand apart in the source and are kept apart here.

What was measured:
[1] = system: HIV-1 strains (SKI, RF, DV, IIIB, ADP/141); assay: microbe, parasite or virus in culture; type: cell-based; conditions: for IC90: read-out: IC90 (cpe assay)
HIV-1 clinical isolates = assay: microbe, parasite or virus in culture; type: cell-based; conditions: PBLs, read-out: IC50 viral production
[2] = set-up: species or system cynomolgus monkeys; conditions: cynomolgus monkey, in vivo
Method: Dosing. Twelve experimentally naive cynomolgus monkeys were assigned to four groups of three animals each. Prior to dosing, each animal was lightly sedated with a combination of ketamine (1 0 mg/kg) and diazepam (0.5 mg/kg), and a catheter was introduced into the femoral artery for recording central arterial pressure. Monkeys were given a single intravenous infusion of 5, 20, or 50 mg AR177/kg or saline over ten minutes through a cephalic vein catheter using a Harvard infusion pump. Arterial blood samples were drawn at −10, +10, +20, +40, +60 and +120 minutes relative to the initiation of infusion into EDTA-containing tubes for hematology, complement factors, coagulation assay, serum chemistry, and plasma AR177 determination. At 24 hours post-infusion, blood was drawn via the femoral vein into EDTA-containing tubes for these same parameters. The concentration of AR177 in dosing solutions was confirmed post experiment by absorbance at 280 nm on a spectrophotometer. For the determination of AR177 by HPLC, the plasma fraction was obtained by low speed centrifugation of blood, and stored at −20° C. until used. Electrocardiograms (ECGs), central pressure, and heart rate were recorded continuously for 120 minutes following the initiation of doing. Table E-1 summarizes the study design. The animals were observed twice daily pharmacotoxic signs and general health beginning two days before dosing and for seven days following dosing. The monkeys were not necropsied at the end of the study.
Hematology and coagulation parameters. The following are determined: red blood cell count and morphology, total and differential white blood cells, hemoglobin, hematocrit, prothrombin time, fibrinogen, mean cell hemoglobin, mean corpuscular volume, mean corpuscular hemoglobin concentration, platelet count, and activated partial thromboplastin time. Hematology parameters were determined at Sierra Nevada Laboratories (Reno, Nev.).

HIV-1 infected PBMCs = conditions: IIIB

Substance: 5′-gtggtgggtgggtgggt-3′ [T30177] (GTGGTGGGTGGGTGGGT; phosphorothioate termini, further chemistry not given here)
- increase in IC50 when MOI of HIV-1RF changed from 0.01 to 1.28 ([1]; CEM-SS): 14 fold
- IC50 ([1]; HIV-1 DV, SUP T1, read-out: IC50 virus production): 60 ± 4 nM
- IC50 ([1]; HIV-1 IIIB, AA5, read-out: IC50 virus production): < 320 nM
- IC50 ([1]; HIV-1 IIIB, CEM-SS or MT4, read-out: Antiviral Assay IC50 IIIB): 2830 nM
- IC50 ([1]; HIV-1 IIIB, CEM-SS, read-out: IC50 virus production): 2800 nM and 2830 nM
- IC50 ([1]; HIV-1 IIIB, MT2, read-out: IC50 virus production): 1940 ± 120 nM
- IC50 ([1]; HIV-1 IIIB, MT4, read-out: IC50 virus production): 150 ± 20 nM
- TI (therapeutic index) ([1]; HIV-1RF in MT2 cells): 226
- IC50 ([1]; HIV-1 RF, CEM-SS or MT4, read-out: Antiviral Assay IC50 RF): 75 nM
- IC50 ([1]; HIV-1 RF, CEM-SS, MOI 0.01, read-out: IC50 virus production): 75 nM
- IC50 ([1]; HIV-1 RF, MT4, read-out: IC50 virus production): 37 ± 30 nM
- TI (therapeutic index) ([1]; HIV-1SKI in CEM-SS cells): 3680
- IC50 ([1]; HIV-1 SKI, CEM-SS or MT4, read-out: Antiviral Assay IC50 SKI): 25 nM
- IC50 ([1]; HIV-1 SKI, CEM-SS, MOI 0.01, read-out: IC50 virus production): 25 ± 6 nM
- IC50 ([1]; HIV-1 SKI, MT2, read-out: IC50 virus production): 60 ± 1 nM
- IC50 ([1]; IIIB (MT4), MOI 0.01, read-out: IC50 (cpe assay)): 2700 nM
- IC90 ([1]; IIIB (MT4), MOI 0.01): 9200 nM
- IC50 ([1]; IIIB (MT4), MOI 0.02, read-out: IC50 (cpe assay)): 3100 nM
- IC90 ([1]; IIIB (MT4), MOI 0.02): 6600 nM
- IC50 ([1]; IIIB (MT4), MOI 0.3, read-out: IC50 (cpe assay)): 3380 nM
- IC90 ([1]; IIIB (MT4), MOI 0.3): 7000 nM
- IC50 ([1]; IIIB (MT4), MOI 1, read-out: IC50 (cpe assay)): 6800 nM
- IC90 ([1]; IIIB (MT4), MOI 1): 26000 nM
- IC50 ([1]; RF (CEM-SS), MOI 0.01, read-out: IC50 (cpe assay)): 200 nM
- IC90 ([1]; RF (CEM-SS), MOI 0.01): 500 nM
- IC50 ([1]; RF (CEM-SS), MOI 0.02, read-out: IC50 (cpe assay)): 410 nM
- IC90 ([1]; RF (CEM-SS), MOI 0.02): 1500 nM
- IC90 ([1]; RF (CEM-SS), MOI 0.04): 1560 nM
- IC50 ([1]; RF (CEM-SS), MOI 0.08, read-out: IC50 (cpe assay)): 700 nM
- IC90 ([1]; RF (CEM-SS), MOI 0.08): 1560 nM
- IC50 ([1]; RF (CEM-SS), MOI 0.16, read-out: IC50 (cpe assay)): 870 nM
- IC90 ([1]; RF (CEM-SS), MOI 0.16): 1600 nM
- IC50 ([1]; RF (CEM-SS), MOI 0.32, read-out: IC50 (cpe assay)): 1250 nM
- IC90 ([1]; RF (CEM-SS), MOI 0.32): 4700 nM
- IC50 ([1]; RF (CEM-SS), MOI 0.64, read-out: IC50 (cpe assay)): 2640 nM
- IC90 ([1]; RF (CEM-SS), MOI 0.64): 4750 nM
- IC50 ([1]; RF (CEM-SS), MOI 1.28, read-out: IC50 (cpe assay)): 2810 nM
- IC90 ([1]; RF (CEM-SS), MOI 1.28): 4770 nM
- IC50 ([1]; anti-HIV-1 virus production, read-out: Cell Culture IC50): 75 nM
- IC50 (HIV-1 clinical isolates; clinical isolate 942716): 860 ± 6 nM
- IC50 (HIV-1 clinical isolates; clinical isolate 942751): 380 ± 3 nM
- IC50 (HIV-1 clinical isolates; clinical isolate BAKI (SI)): 230 ± 5 nM
- IC50 (HIV-1 clinical isolates; clinical isolate BLCH (NSI)): 3080 ± 6 nM
- IC50 (HIV-1 clinical isolates; clinical isolate JOGA (NSI)): 330 ± 4 nM
- IC50 (HIV-1 clinical isolates; clinical isolate N. Amer. #1): 250 ± 3 nM
- IC50 (HIV-1 clinical isolates; clinical isolate N. Amer. #2): 2920 ± 5 nM
- IC50 (HIV-1 clinical isolates; clinical isolate ROJO (SI)): 3900 ± 20 nM
- IC50 (HIV-1 clinical isolates; clinical isolate S. E. Asia): 580 ± 3 nM
- IC50 (HIV-1 clinical isolates; clinical isolate VIHU (NSI)): 1300 ± 20 nM
- IC50 (HIV-1 clinical isolates; clinical isolate WEJO (SI)): 300 ± 10 nM
- IC50 (HIV-1 clinical isolates; clinical isolate WOME (SI)): 710 ± 2 nM
- no effect plasma AR177 concentration versus aPTT [2]: 60-100 ug AR177/mL
- plasma AR177 concentration at doubling of aPTT [2]: 100-250 ug AR177/mL
- plasma AR177 concentration at tripling of aPTT [2]: 250-300 fig AR177/mL
- % CD4 (HIV-1 infected PBMCs; drug 0.1 μM, day 7): 1%
- % CD8 (HIV-1 infected PBMCs; drug 0.1 μM, day 7): 98%
- CD4/CD8 Ratio (HIV-1 infected PBMCs; drug 0.1 μM, day 7): 0.01
- % CD4 (HIV-1 infected PBMCs; drug 1.0 μM): 18%
- % CD8 (HIV-1 infected PBMCs; drug 1.0 μM): 85%
- CD4/CD8 Ratio (HIV-1 infected PBMCs; drug 1.0 μM): 0.21
- % CD4 (HIV-1 infected PBMCs; drug 5.0 μM): 27%
- % CD8 (HIV-1 infected PBMCs; drug 5.0 μM): 83%
- CD4/CD8 Ratio (HIV-1 infected PBMCs; drug 5.0 μM): 0.33
